Measurements reported in ChEMBL document CHEMBL1143475, “Investigation of factor Xa inhibitors containing non-amidine S1 elements” (Bioorg Med Chem Lett, 2005).

Key:
[1] = target: Coagulation factor X (Homo sapiens) (UniProt P00742); assay: Binding affinity as apparent association constant for human coagulation factor X
[2] = target: Thrombin and coagulation factor X (Homo sapiens) (UniProt P00734+P00742); assay: Anticoagulant potency against double prothrombin time; format: functional
[3] = target: Plasminogen (Homo sapiens) (UniProt P00747); assay: Binding affinity as apparent association constant for Plasmin
[4] = target: Tissue-type plasminogen activator (Homo sapiens) (UniProt P00750); assay: Binding affinity as apparent association constant for Tissue plasminogen activator
[5] = target: Prothrombin (Homo sapiens) (UniProt P00734); assay: Binding affinity as apparent association constant for Coagulation factor II
[6] = target: Serine protease 1 (Homo sapiens) (UniProt P07477); assay: Binding affinity as apparent association constant for Trypsin
[7] = target: Urokinase-type plasminogen activator (Homo sapiens) (UniProt P00749); assay: Binding affinity as apparent association constant for Urokinase

Chain of Coagulation factor X (Homo sapiens) (P00742 41-179 limits assumed): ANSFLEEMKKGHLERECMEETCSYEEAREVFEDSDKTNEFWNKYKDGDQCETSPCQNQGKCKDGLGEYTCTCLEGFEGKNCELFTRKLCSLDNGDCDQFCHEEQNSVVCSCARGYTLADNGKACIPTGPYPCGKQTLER
Chain of Coagulation factor X (Homo sapiens) (P00742 235-488 limits assumed): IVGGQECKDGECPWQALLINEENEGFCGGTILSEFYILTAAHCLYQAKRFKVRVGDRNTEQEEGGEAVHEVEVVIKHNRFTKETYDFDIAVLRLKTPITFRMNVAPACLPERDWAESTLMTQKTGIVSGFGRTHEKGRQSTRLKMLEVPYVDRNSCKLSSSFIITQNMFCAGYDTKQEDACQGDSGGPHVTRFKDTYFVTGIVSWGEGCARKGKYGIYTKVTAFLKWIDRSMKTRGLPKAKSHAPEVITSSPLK
Chain of Thrombin and coagulation factor X (Homo sapiens) (P00742 whole entry, looked up, other chains not shown): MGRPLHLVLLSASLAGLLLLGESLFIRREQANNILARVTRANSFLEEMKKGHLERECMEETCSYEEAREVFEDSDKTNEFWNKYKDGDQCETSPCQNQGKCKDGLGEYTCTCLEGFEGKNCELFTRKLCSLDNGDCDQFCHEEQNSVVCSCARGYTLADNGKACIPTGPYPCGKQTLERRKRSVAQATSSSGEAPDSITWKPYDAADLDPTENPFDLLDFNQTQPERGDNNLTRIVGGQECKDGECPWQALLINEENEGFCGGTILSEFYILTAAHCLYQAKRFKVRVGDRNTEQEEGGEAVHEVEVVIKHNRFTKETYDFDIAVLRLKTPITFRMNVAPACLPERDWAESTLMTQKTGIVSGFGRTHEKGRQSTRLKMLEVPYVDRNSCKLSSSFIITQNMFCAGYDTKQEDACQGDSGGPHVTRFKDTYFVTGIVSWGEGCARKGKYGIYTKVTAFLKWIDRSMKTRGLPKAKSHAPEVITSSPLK
Chain of Plasminogen (Homo sapiens) (P00747 97-580 limits assumed): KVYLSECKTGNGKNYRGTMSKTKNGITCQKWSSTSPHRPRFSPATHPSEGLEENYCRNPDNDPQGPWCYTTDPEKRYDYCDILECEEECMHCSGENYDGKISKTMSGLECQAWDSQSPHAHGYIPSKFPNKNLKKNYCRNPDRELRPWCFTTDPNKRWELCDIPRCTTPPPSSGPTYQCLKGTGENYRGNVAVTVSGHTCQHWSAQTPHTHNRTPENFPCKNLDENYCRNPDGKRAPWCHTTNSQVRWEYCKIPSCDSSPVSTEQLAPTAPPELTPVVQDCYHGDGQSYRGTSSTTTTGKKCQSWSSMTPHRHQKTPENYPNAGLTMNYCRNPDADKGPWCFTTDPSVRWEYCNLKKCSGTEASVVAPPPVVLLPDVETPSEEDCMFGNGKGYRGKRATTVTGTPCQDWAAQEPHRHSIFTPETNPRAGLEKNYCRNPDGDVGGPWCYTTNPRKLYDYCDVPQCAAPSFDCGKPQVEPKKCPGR
Chain of Plasminogen (Homo sapiens) (P00747 581-810 limits assumed): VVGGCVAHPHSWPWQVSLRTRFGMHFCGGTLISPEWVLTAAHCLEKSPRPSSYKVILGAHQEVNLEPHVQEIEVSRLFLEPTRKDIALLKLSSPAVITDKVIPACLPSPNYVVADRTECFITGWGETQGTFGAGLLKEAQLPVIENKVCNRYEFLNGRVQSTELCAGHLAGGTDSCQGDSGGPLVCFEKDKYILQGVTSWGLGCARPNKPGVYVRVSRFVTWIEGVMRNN
Chain of Serine protease 1 (Homo sapiens) (P07477 whole entry): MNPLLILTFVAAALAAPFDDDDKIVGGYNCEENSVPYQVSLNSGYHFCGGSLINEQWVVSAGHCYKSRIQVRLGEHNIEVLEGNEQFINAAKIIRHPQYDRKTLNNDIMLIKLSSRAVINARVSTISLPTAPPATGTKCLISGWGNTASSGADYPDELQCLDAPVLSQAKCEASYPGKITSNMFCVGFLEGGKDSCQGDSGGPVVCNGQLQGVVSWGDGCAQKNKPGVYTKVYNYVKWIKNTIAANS
Chain of Tissue-type plasminogen activator (Homo sapiens) (P00750 36-562 limits assumed): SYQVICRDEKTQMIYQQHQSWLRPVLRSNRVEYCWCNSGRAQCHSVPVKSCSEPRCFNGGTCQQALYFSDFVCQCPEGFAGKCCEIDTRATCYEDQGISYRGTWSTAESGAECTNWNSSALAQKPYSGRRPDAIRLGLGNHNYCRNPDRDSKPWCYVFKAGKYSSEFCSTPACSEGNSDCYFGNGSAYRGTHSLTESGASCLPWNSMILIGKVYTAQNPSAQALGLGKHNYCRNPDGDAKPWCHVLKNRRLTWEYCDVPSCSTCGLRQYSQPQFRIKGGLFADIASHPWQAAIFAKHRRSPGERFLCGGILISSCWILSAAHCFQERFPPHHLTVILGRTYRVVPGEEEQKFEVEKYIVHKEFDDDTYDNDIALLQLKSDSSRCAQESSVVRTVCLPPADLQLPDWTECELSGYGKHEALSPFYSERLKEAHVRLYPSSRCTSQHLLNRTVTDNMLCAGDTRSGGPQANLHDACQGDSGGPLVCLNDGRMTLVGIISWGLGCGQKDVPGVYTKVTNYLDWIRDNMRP

Compound | K ass [1] | PT [2] | further results
Cc1ccc(C(=O)Nc2ccccc2NC(=O)OCC2CCN(c3ccncc3)CC2)cc1Cl | 2.3e+06 L/mol | 22 µM | 
O=C(Nc1ccccc1NC(=O)c1ccc(OC(F)F)cc1)OCC1CCN(c2ccncc2)CC1 | 5e+06 L/mol | 6 µM | 
O=C(Nc1ccccc1NC(=O)c1ccc2cc[nH]c2c1)OCC1CCN(c2ccncc2)CC1 | 5.4e+07 L/mol | 1.6 µM | 
O=C(Nc1ccccc1NC(=O)c1ccc(Cl)o1)OCC1CCN(c2ccncc2)CC1 | 700000 L/mol |  | 
O=C(Nc1ccccc1NC(=O)c1ccccc1Cl)OCC1CCN(c2ccncc2)CC1 | 300000 L/mol |  | 
O=C(Nc1ccccc1NC(=O)C1C=CCCC1)OCC1CCN(c2ccncc2)CC1 (stereo unspecified) | 200000 L/mol |  | 
O=C(Nc1ccccc1NC(=O)C1CCCCC1)OCC1CCN(c2ccncc2)CC1 | 40000 L/mol |  | 
Cc1ccc(C(=O)Nc2ccccc2NC(=O)OCC2CCN(c3ccncc3)CC2)cc1F | 5.8e+06 L/mol | 7 µM | 
COc1ccccc1C(=O)Nc1ccccc1NC(=O)OCC1CCN(c2ccncc2)CC1 | 20000 L/mol |  | 
O=C(Nc1ccccc1NC(=O)c1ccccc1)OCC1CCN(c2ccncc2)CC1 | 1.6e+06 L/mol |  | 
O=C(Nc1ccccc1NC(=O)C1=CCCCC1)OCC1CCN(c2ccncc2)CC1 | 900000 L/mol |  | 
O=C(Nc1ccccc1NC(=O)c1cccc(Cl)c1Cl)OCC1CCN(c2ccncc2)CC1 | 1.9e+07 L/mol | 5 µM | 
O=C(Nc1ccccc1NC(=O)c1ccc(Cl)s1)OCC1CCN(c2ccncc2)CC1 | 3.3e+07 L/mol | 2.6 µM | 
COc1ccc(C(=O)Nc2ccccc2NC(=O)OCC2CCN(c3ccncc3)CC2)cc1F | 46 L/mol | 1.1 µM | 
O=C(Nc1ccccc1NC(=O)C1=CCCC1)OCC1CCN(c2ccncc2)CC1 | 700000 L/mol |  | 
O=C(Nc1ccccc1NC(=O)c1ccc2c(c1)CCO2)OCC1CCN(c2ccncc2)CC1 | 600000 L/mol |  | 

Further lines, with some results ahead:

K ass [1] | PT [2] | Compound | further results
2.5e+06 L/mol | 17 µM | O=C(Nc1ccccc1NC(=O)c1cccc(F)c1)OCC1CCN(c2ccncc2)CC1 | 
1.9e+07 L/mol | 1.9 µM | COc1ccc(C(=O)Nc2ccccc2NC(=O)OCC2CCN(c3ccncc3)CC2)cc1 | 
1e+06 L/mol |  | O=C(Nc1ccccc1NC(=O)c1cccc(O)c1)OCC1CCN(c2ccncc2)CC1 | 
3.3e+06 L/mol | 10 µM | COc1cccc(C(=O)Nc2ccccc2NC(=O)OCC2CCN(c3ccncc3)CC2)c1 | 
600000 L/mol |  | N#Cc1ccc(C(=O)Nc2ccccc2NC(=O)OCC2CCN(c3ccncc3)CC2)cc1 | 
2.42e+08 L/mol | 0.9 µM | CC(C)(C)c1ccc(C(=O)Nc2ccccc2NC(=O)c2cccc(C(=N)N)c2)cc1 | 
3.8e+07 L/mol | 1.8 µM | O=C(Nc1ccccc1NC(=O)c1ccc(Br)cc1)OCC1CCN(c2ccncc2)CC1 | 
2e+06 L/mol | 9.7 µM | COc1ccc(C(=O)Nc2ccccc2NC(=O)C2CCN(c3ccncc3)CC2)cc1 | 
4.1e+06 L/mol | 12 µM | O=C(Nc1ccccc1NC(=O)c1cccc(Cl)c1)OCC1CCN(c2ccncc2)CC1 | 
4.6e+06 L/mol |  | O=C(Nc1ccccc1NC(=O)c1ccc(F)cc1)OCC1CCN(c2ccncc2)CC1 | 
5.1e+06 L/mol | 8 µM | Nc1cccc(C(=O)Nc2ccccc2NC(=O)OCC2CCN(c3ccncc3)CC2)c1 | 
6.3e+06 L/mol | 8 µM | Cc1ccc(C(=O)Nc2ccccc2NC(=O)OCC2CCN(c3ccncc3)CC2)cc1 | 
1.4e+07 L/mol | 6 µM | O=C(Nc1ccccc1NC(=O)c1ccc(I)cc1)OCC1CCN(c2ccncc2)CC1 | 
7e+06 L/mol | > 50 µM | COc1ccc(C(=O)Nc2ccccc2NC(=O)c2ccc(C(C)(C)C)cc2)cc1 | 
3.5e+07 L/mol | 1.9 µM | O=C(Nc1ccccc1NC(=O)c1ccc(Cl)cc1)OCC1CCN(c2ccncc2)CC1 | Ka [3]: < 10000 L/mol; Ka [4]: < 10000 L/mol; Ka [5]: 20000 L/mol; Ka [6]: < 10000 L/mol; Ka [7]: < 10000 L/mol
5.9e+06 L/mol |  | Cc1cccc(C(=O)Nc2ccccc2NC(=O)OCC2CCN(c3ccncc3)CC2)c1 | 
